Where two headings read alike, the source gives them in different places.
What was measured:
human TLR7 = target: T1, human TLR7 (Homo sapiens, UniProt Q9NYK1); test: Human TLR7 agonist activity assay (HEK-Blue TLR7 SEAP reporter); assay type: cell-based; conditions: HEK-Blue TLR7 cells, 18 h treatment, average where assay was performed multiple times, read-out: hTLR7 Agonism EC50
T1 construct: host or cells: HEK-Blue TLR7 cells (engineered human embryonic kidney cells)
T1 sequence (Q9NYK1 27-1049): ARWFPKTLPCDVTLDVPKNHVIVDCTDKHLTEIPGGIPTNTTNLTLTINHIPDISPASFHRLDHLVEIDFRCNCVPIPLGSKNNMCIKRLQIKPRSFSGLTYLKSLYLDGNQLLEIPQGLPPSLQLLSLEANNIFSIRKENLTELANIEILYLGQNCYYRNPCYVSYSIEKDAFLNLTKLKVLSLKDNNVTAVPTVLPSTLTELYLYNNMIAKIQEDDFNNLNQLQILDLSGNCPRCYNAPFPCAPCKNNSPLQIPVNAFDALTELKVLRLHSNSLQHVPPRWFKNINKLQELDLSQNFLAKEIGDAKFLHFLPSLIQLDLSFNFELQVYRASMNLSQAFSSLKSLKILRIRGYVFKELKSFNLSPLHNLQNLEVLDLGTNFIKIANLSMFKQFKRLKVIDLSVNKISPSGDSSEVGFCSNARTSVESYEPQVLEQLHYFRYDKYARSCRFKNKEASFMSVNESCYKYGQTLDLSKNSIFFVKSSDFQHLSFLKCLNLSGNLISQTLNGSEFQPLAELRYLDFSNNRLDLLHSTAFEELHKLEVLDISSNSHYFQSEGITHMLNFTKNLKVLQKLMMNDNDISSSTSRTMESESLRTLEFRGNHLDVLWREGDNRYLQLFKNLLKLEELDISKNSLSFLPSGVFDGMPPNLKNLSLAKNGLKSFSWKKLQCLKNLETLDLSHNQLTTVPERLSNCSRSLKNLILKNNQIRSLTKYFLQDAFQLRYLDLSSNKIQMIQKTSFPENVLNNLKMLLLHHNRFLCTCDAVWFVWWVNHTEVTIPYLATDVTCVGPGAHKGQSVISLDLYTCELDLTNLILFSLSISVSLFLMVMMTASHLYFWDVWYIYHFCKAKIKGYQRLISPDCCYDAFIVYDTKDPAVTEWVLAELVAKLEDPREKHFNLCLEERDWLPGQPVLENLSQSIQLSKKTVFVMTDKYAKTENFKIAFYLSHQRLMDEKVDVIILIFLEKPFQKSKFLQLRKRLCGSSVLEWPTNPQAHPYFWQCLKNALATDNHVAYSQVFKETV
Protocol: This procedure describes a method for assaying human TLR7 (hTLR7) agonist activity of the compounds disclosed in this specification.
HEK-Blue™ TLR7 cells were added to each well of a 384-well tissue-culture plate (15,000 cells per well) and incubated 16-18 h at 37° C., 5% CO2. Compounds (100 nl) were dispensed into wells containing the HEK-Blue™ TLR cells and the treated cells were incubated at 37° C., 5% CO2. After 18 h treatment ten microliters of freshly-prepared Quanti-Blue™ reagent (Invivogen) was added to each well, incubated for 30 min (37° C., 5% CO2) and SEAP levels measured using an Envision plate reader (OD=620 nm).

CD69 = test: Induction of CD69 in human whole blood; assay type: cell-based
Protocol: The induction of Type I interferon (IFN) MX-1 genes and the B-cell activation marker CD69 are downstream events that occur upon activation of the TLR7 pathway. The following is a human whole blood assay that measures their induction in response to a TLR7 agonist.
Heparinized human whole blood was harvested from human subjects and treated with test TLR7 agonist compounds at 1 mM. The blood was diluted with RPMI 1640 media and Echo was used to predot 10 nL per well giving a final concentration of 1 uM (10 nL in 10 uL of blood). After mixing on a shaker for 30 sec, the plates were covered and placed in a 37° C. chamber for o/n=17 hrs. Fixing/lysis buffer was prepared (5×->1× in H2O, warm at 37° C.; Cat #BD 558049) and kept the perm buffer (on ice) for later use.
For surface markers staining (CD69): prepared surface Abs: 0.045 ul hCD14-FITC (ThermoFisher Cat #MHCD1401)+0.6 ul hCD19-ef450 (ThermoFisher Cat #48-0198-42)+1.5 ul hCD69-PE (cat #BD555531)+0.855 ul FACS buffer. Added 3 ul/well, spin1000 rpm for 1 min and mixed on shaker for 30 sec, put on ice for 30 mins. Stop stimulation after 30 min with 70 uL of prewarmed 1× fix/lysis buffer and use Feliex mate to resuspend (15 times, change tips for each plate) and incubate at 37 C for 10 min.
Centrifuge at 2000 rpm for 5 min aspirate with HCS plate washer, mix on shaker for 30 sec and then wash with 70 uL in dPBS and pelleted 2×s (2000 rpm for 5 min) and 50 ul wash in FACS buffer pelleted 1×s (2000 rpm for 5 min). Mix on shaker for 30 sec. For Intracellular markers staining (MX-1): Add 50 ul of BD Perm buffer III and mix on shaker for 30 sec. Incubate on ice for 30 minutes (in the dark). Wash with 50 uL of FACS buffer 2× (spin @2300 rpm×5 min after perm) followed by mixing on shaker for 30 sec. Resuspended in 20 ul of FACS buffer containing MX1 antibody ( )(4812)-Alexa 647: Novus Biologicals #NBP2-43704AF647) 20 ul FACS bf+0.8 ul hlgG+0.04 ul MX-1. Spin 1000 rpm for 1 min, mix on shaker for 30se and the samples were incubated at RT in the dark for 45 minutes followed by washing 2×FACS buffer (spin @2300 rpm×5 min after perm). Resuspend 20 ul (35 uL total per well) of FACS buffer and cover with foil and place in 4° C. to read the following day. Plates were read on iQuePlus. The results were loaded into toolset and […] curves are generated in curve master. The y-axis 100% is set to 1 uM of resiquimod.

[1] = Homo sapiens, 17 h, read-out: hWB CD69 EC50 (nM)
[2] = human whole blood, 17 hrs, CD69 surface staining, 100% set to 1 uM of resiquimod, average where assay was performed multiple times, read-out: hWB CD69 EC50

In the case of `COc1cc(C(=O)NC2CCN(C)CC2)ccc1Cn1ncc2nc(N)nc(NCc3cc(C)on3)c21` [Compound 129, 4-[(5-amino-7-{[(5-methyl-1,2-oxazo1-3-yl)methyl]amino}-1H-pyrazolo[4,3-d]pyrimidin-1-yl)methyl]-3-methoxy-N-(1-methylpiperidin-4-yl)benzamide], the EC50 (human TLR7) is reported as 1240 nM and the EC50 (CD69; [1]) is reported as 67.7 nM.

With `CCCCNc1nc(N)nc2cnn(Cc3ccc(C(=O)N4CCN(C(C)=O)CC4)cc3OC)c12` [Compound 107, 1-[4-(4-{[5-amino-7-(butylamino)-1H-pyrazolo[4,3-d]pyrimidin-1-yl]methyl}-3-methoxybenzoyl)piperazin-1-yl]ethan-1-one] the EC50 (human TLR7) was 264 nM and the EC50 (CD69; [2]) was 93.4 nM.

`CCCCNc1nc(N)nc2cnn(Cc3ccc(C(=O)N4CCCN(C)CC4)cc3OC)c12` [Compound 110, N7-butyl-1-{[2-methoxy-4-(4-methyl-1,4-diazepane-1-carbonyl)phenyl]methyl}-1H-pyrazolo[4,3-d]pyrimidine-5,7-diamine] gave an EC50 (human TLR7) of 16.3 nM and an EC50 (CD69; [2]) of 3.9 nM.

`COc1cc(C(=O)N2CCNC(=O)C2)ccc1Cn1ncc2nc(N)nc(NCc3cc(C)on3)c21` [Compound 131, 4-{4-[(5-amino-7-{[(5-methyl-1,2-oxazo1-3-yl)methyl]amino}-1H-pyrazolo[4,3-d]pyrimidin-1-yl)methyl]-3-methoxybenzoyl}piperazin-2-one] gave an EC50 (human TLR7) of 2190 nM and an EC50 (CD69; [2]) of 363 nM.

For `CCCCNc1nc(N)nc2cnn(Cc3ccc(C(=O)N4CCNCC4)cc3OC)c12` [Compound 104, N7-butyl-1-{[2-methoxy-4-(piperazine-1-carbonyl)phenyl]methyl}-1H-pyrazolo[4,3-d]pyrimidine-5,7-diamine], the EC50 (human TLR7) was 40.7 nM and the EC50 (CD69; [2]) was 120 nM.

Compound `CCCCNc1nc(N)nc2cnn(Cc3ccc(C(=O)NCCN(C)C)cc3OC)c12` [Compound 111, 4-{[5-amino-7-(butylamino)-1H-pyrazolo[4,3-d]pyrimidin-1-yl]methyl}-N-[2-(dimethylamino)ethyl]-3-methoxybenzamide] has an EC50 (human TLR7) of 78 nM and an EC50 (CD69; [2]) of 6.8 nM.

In the case of `CCCCNc1nc(N)nc2c(C)nn(Cc3ccc(C(=O)N4CCN(CCO)CC4)cc3OC)c12` [Compound 118, 2-[4-(4-{[5-amino-7-(butylamino)-3-methyl-1H-pyrazolo[4,3-d]pyrimidin-1-yl]methyl}-3-methoxybenzoyl)piperazin-1-yl]ethan-1-ol], the EC50 (human TLR7) is reported as 405 nM and the EC50 (CD69; [2]) is reported as 63.3 nM.

`COc1cc(C(=O)N2CCN(CCO)CC2)ccc1Cn1ncc2nc(N)nc(NCc3cc(C)on3)c21` [Compound 127, 2-(4-{4-[(5-amino-7-{[(5-methyl-1,2-oxazo1-3-yl)methyl]amino}-1H-pyrazolo[4,3-d]pyrimidin-1-yl)methyl]-3-methoxybenzoyl}piperazin-1-yl)ethan-1-ol] gave an EC50 (human TLR7) of 505 nM and an EC50 (CD69; [2]) of 173 nM.

Compound `CCCCNc1nc(N)nc2cnn(Cc3ccc(C(=O)N4CCC(O)CC4)cc3OC)c12` [Compound 113, 1-(4-{[5-amino-7-(butylamino)-1H-pyrazolo[4,3-d]pyrimidin-1-yl]methyl}-3-methoxybenzoyl)piperidin-4-ol] has an EC50 (human TLR7) of 111 nM and an EC50 (CD69; [2]) of 106 nM.

`CCCCNc1nc(N)nc2cnn(Cc3ccc(C(=O)NC4CCC4)cc3OC)c12` [Compound 103, 4-{[5-amino-7-(butylamino)-1H-pyrazolo[4,3-d]pyrimidin-1-yl]methyl}-N-cyclobutyl-3-methoxybenzamide] was tested, and the EC50 (human TLR7) was 1660 nM and the EC50 (CD69; [2]) was at least 1000 nM.

Compound `CCC[C@@H](CCO)Nc1nc(N)nc2c(F)nn(Cc3ccc(C(=O)NC4CCN(C)CC4)cc3OC)c12` [Compound 128, 4-[(5-amino-3-fluoro-7-{[(3S)-1-hydroxyhexan-3-yl]amino}-1H-pyrazolo[4,3-d]pyrimidin-1-yl)methyl]-3-methoxy-N-(1-methylpiperidin-4-yl)benzamide] has an EC50 (human TLR7) of 179 nM and an EC50 (CD69; [1]) of 772 nM.

With `CCCCNc1nc(N)nc2cnn(Cc3ccc(C(=O)N4CCN(CCO)CC4)cc3OC(F)F)c12` [Compound 120, 2-[4-(4-{[5-amino-7-(butylamino)-1H-pyrazolo[4,3-d]pyrimidin-1-yl]methyl}-3-(difluoromethoxy)benzoyl)piperazin-1-yl]ethan-1-ol] the EC50 (human TLR7) was 1200 nM and the EC50 (CD69; [2]) was 94.6 nM.

In the case of `CCC[C@@H](CCO)Nc1nc(N)nc2cnn(Cc3ccc(C(=O)N4CCN(CCO)CC4)cc3OC)c12` [Compound 123, (3S)-3-{[5-amino-1-({4-[4-(2-hydroxyethyl)piperazine-1-carbonyl]-2-methoxyphenyl}methyl)-1H-pyrazolo[4,3-d]pyrimidin-7-yl]amino}hexan-1-ol], the EC50 (human TLR7) is reported as 115 nM and the EC50 (CD69; [2]) is reported as 71.9 nM.

`COc1cc(C(=O)N2CCN(CCO)CC2)ccc1Cn1ncc2nc(N)nc(NCc3noc(C)n3)c21` [Compound 133, 2-(4-{4-[(5-amino-7-{[(5-methyl-1,2,4-oxadiazo1-3-yl)methyl]amino}-1H-pyrazolo[4,3-d]pyrimidin-1-yl)methyl]-3-methoxybenzoyl}piperazin-1-yl)ethan-1-ol] gave an EC50 (human TLR7) of 1870 nM and an EC50 (CD69; [2]) of 552 nM.

In the case of `CCC[C@@H](CCO)Nc1nc(N)nc2cnn(Cc3ccc(C(=O)NC4CCN(C)CC4)cc3OC)c12` [Compound 125, 4-[(5-amino-7-{[(3S)-1-hydroxyhexan-3-yl]amino}-1H-pyrazolo[4,3-d]pyrimidin-1-yl)methyl]-3-methoxy-N-(1-methylpiperidin-4-yl)benzamide], the EC50 (human TLR7) is reported as 747 nM and the EC50 (CD69; [1]) is reported as 332 nM.

For `CCCCNc1nc(N)nc2cnn(Cc3ccc(C(=O)N4CCC(CO)CC4)cc3OC)c12` [Compound 112, [1-(4-{[5-amino-7-(butylamino)-1H-pyrazolo[4,3-d]pyrimidin-1-yl]methyl}-3-methoxybenzoyl)piperidin-4-yl]methanol], the EC50 (human TLR7) was 154 nM and the EC50 (CD69; [2]) was 81.9 nM.

`CCCCNc1nc(N)nc2c(C)nn(Cc3ccc(C(=O)NC4CCN(C)CC4)cc3OC)c12` [Compound 117, 4-{[5-amino-7-(butylamino)-3-methyl-1H-pyrazolo[4,3-d]pyrimidin-1-yl]methyl}-3-methoxy-N-(1-methylpiperidin-4-yl)benzamide] gave an EC50 (human TLR7) of 467 nM and an EC50 (CD69; [1]) of 56.9 nM.

`CCCCNc1nc(N)nc2cnn(Cc3ccc(C(=O)N4CCC(N(C)C)CC4)cc3OC)c12` [Compound 109, N7-butyl-1-({4-[4-(dimethylamino)piperidine-1-carbonyl]-2-methoxyphenyl}methyl)-1H-pyrazolo[4,3-d]pyrimidine-5,7-diamine] showed an EC50 (human TLR7) of 29.7 nM and an EC50 (CD69; [2]) of 49.6 nM.

With `CCCCNc1nc(N)nc2cnn(Cc3ccc(C(=O)NC4CCOCC4)cc3OC)c12` [Compound 102, 4-{[5-amino-7-(butylamino)-1H-pyrazolo[4,3-d]pyrimidin-1-yl]methyl}-3-methoxy-N-(oxan-4-yl)benzamide] the EC50 (CD69; [2]) was at least 1000 nM.
